Measurements taken from patent US11925195B2, “Synergistic nutritional compositions for treating cerebrovascular diseases” (CELAGENEX RESEARCH (INDIA) PVT. LTD., priority 2019, dated 2024).

Tests used:
Assay type in all cases: in vivo, Wistar Rats
[1] = Rat feed consumption in global ischemia reperfusion study; settings: oral daily dosing (Standard 9.3 mg/kg, NBP 49.6 mg/kg, NR 31 mg/kg)
[2] = Rat body weight in global ischemia reperfusion study; settings: mean ± SEM, n = 6; for Body Weight, Basal: male Wistar rats; for Body Weight, Week 01: oral daily dosing (Standard 9.3 mg/kg, NBP 49.6 mg/kg, NR 31 mg/kg)
[3] = system: TNF alpha; test: Rat TNF alpha level after global ischemia reperfusion; settings: oral 10 days (Std 9.3 mg/kg, NBP 49.6 mg/kg, NR 31 mg/kg); 30 mins global ischemia on 7th day, 72 hrs reperfusion; mean ± SEM, n = 6; I/R control 172.17 ± 6.35
[4] = system: Interleukin - 6; test: Rat Interleukin-6 level after global ischemia reperfusion; settings: oral 10 days (Standard 9.3 mg/kg, NBP 49.6 mg/kg, NR 31 mg/kg); 30 mins global ischemia on 7th day, 72 hrs reperfusion; mean ± SEM, n = 6; I/R control 121.83 ± 1.65

NC(=O)c1ccc[n+]([C@@H]2O[C@H](CO)[C@@H](O)[C@H]2O)c1.[Cl-] [Nicotinamide Riboside chloride (NR), nicotinamide riboside chloride]
Feed Consumption, Week 01 [1]: 99.71 ± 1.04 gm | Body Weight, Basal [2]: 215.00 ± 1.46 gm | Body Weight, Week 01 [2]: 224.83 ± 1.08 gm | TNF alpha Level [3]: 160.33 ± 4.79 pg/mL | Interleukin - 6 Levels [4]: 109.56 ± 0.27 pg/mL

CCCCC1OC(=O)c2ccccc21 (racemic) [3-N-butylpthalide (NBP), 3-N-butylphthalide]
Feed Consumption, Week 01 [1]: 99.57 ± 1.00 gm | Body Weight, Basal [2]: 214.50 ± 1.12 gm | Body Weight, Week 01 [2]: 224.50 ± 0.76 gm | TNF alpha Level [3]: 132.00 ± 2.34 pg/mL | Interleukin - 6 Levels [4]: 85.39 ± 0.62 pg/mL
